Among the test systems are DLD-1; DMS-273; HOP-18; KM-20L2; M19-MEL; SNB-78; XF498; DMS-114; RXF 631.
Test in all cases: inhibition of tumour cell growth, NCI panel, 48 h

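Where inhibition never reached the appropriate level, the endpoint shown equals the highest concentration tested. Otherwise, values were interpolated linearly from a five-concentration, 48-hour dose response in 96-well plates. At the GI50, growth is halved.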 Activity calls are given as the source filed them. Cut-off read from the data, not from the text of the source: active = GI50 up to about 1.1 µM and inactive = higher.

In the case of `N/C(S)=N/N=C/c1ncccc1O`, the GI50 was 2.26 µM (inactive) with DLD-1; 0.508 µM (active) with DMS-273; 2.25 µM (inactive) in the assay with HOP-18; 1.39 µM (inactive) with KM-20L2; 1.91 µM (inactive) with M19-MEL; 81.8 µM (inactive) with SNB-78. For the same molecule, the GI50 in the assay on XF498 was 1.51 µM (inactive).

Regarding `COc1ccc(-c2cn3ccsc3n2)cc1`, the GI50 is > 100 µM (inactive) in the assay with DLD-1; 47.8 µM (inactive) in the assay with DMS-114; > 100 µM (inactive) in the assay with DMS-273; > 100 µM (inactive) in the assay on HOP-18; 57.8 µM (inactive) in the assay on KM-20L2; > 100 µM (inactive) in the assay on M19-MEL. In addition, the GI50 with SNB-78 was > 100 µM (inactive).

As to `O=C(CC(=O)Nc1ccccc1O)Nc1ccccc1O`, the GI50 is 12.5 µM (inactive) in the assay on DLD-1; 1.75 µM (inactive) in the assay with DMS-114; 25.9 µM (inactive) in the assay on DMS-273; 19.4 µM (inactive) in the assay on HOP-18; 22.9 µM (inactive) in the assay with KM-20L2; 15 µM (inactive) in the assay with M19-MEL. The results for the GI50 in the assay on RXF 631 and in the assay on SNB-78 were 9.79 µM (inactive) and > 100 µM (inactive), respectively.

On to `O=C(Cc1nc2ccccc2s1)Nc1cccc(C(F)(F)F)c1`, for which the GI50 in the assay on DLD-1 was 14.2 µM (inactive); in the assay on DMS-114, 15.6 µM (inactive); with DMS-273, 18.7 µM (inactive); in the assay on HOP-18, 18.5 µM (inactive); in the assay on KM-20L2, 20.4 µM (inactive); in the assay with M19-MEL, 13 µM (inactive). The GI50 in the assay on RXF 631 is 13.8 µM (inactive); in the assay with XF498, 14.8 µM (inactive).

On to `FC(F)(F)P1C2C=CC(CC2)C1(F)F` (configuration not stated), for which the GI50 in the assay with DLD-1, in the assay on DMS-114, in the assay with DMS-273, in the assay on HOP-18, in the assay with KM-20L2 and with M19-MEL was > 100 µM (inactive) each time. Besides, the GI50 in the assay on SNB-78 and in the assay with XF498 was > 100 µM (inactive) throughout.

Take `NC(=O)C#CC#CC#CCO`: the GI50 in the assay with DLD-1 was 0.807 µM (active); in the assay on DMS-114 it was 2.05 µM (inactive); in the assay with DMS-273, 1.98 µM (inactive); with HOP-18, 1.82 µM (inactive); in the assay with KM-20L2 it was 3.89 µM (inactive); with M19-MEL, 1.81 µM (inactive). Moreover, the GI50 in the assay with SNB-78 was 2.86 µM (inactive).

`CCOC(=O)NC(=O)c1cn(CCCOC(=O)CCCCCCCCCCC(=O)OCCCn2cc(C(=O)NC(=O)OCC)c(=O)[nH]c2=O)c(=O)[nH]c1=O`: the GI50 in the assay with DLD-1 was > 100 µM (inactive); in the assay on HOP-18 it was > 100 µM (inactive); with KM-20L2, > 100 µM (inactive); with M19-MEL, > 100 µM (inactive); with RXF 631 it was 37.3 µM (inactive); in the assay with SNB-78, > 100 µM (inactive). In addition, the GI50 in the assay on XF498 is > 100 µM (inactive).

`CC(C)OP(=O)(OC(C)C)/C(N)=N/Nc1ccc([N+](=O)[O-])cc1`: the GI50 with DLD-1 was > 100 µM (inactive); in the assay on DMS-114 it was 57.8 µM (inactive); in the assay on DMS-273, > 100 µM (inactive); in the assay on KM-20L2, > 100 µM (inactive); in the assay with M19-MEL, > 100 µM (inactive); in the assay with SNB-78, 50.7 µM (inactive). In the assay with XF498, the GI50 is 23.5 µM (inactive).

As for `CN(C)/C=N\c1nc(=O)n(C2CCC(CO)O2)cc1F` (configuration not stated), the GI50 in the assay on DLD-1 was > 100 µM (inactive); in the assay with DMS-273 it was > 100 µM (inactive); with HOP-18, > 100 µM (inactive); with KM-20L2 it was > 100 µM (inactive); in the assay on SNB-78, 95.9 µM (inactive); with XF498 it was > 100 µM (inactive).

For `O=[N+]([O-])C1Cc2ccccc2OC1c1ccccc1` (configuration not stated), the GI50 in the assay with DLD-1 was 35.3 µM (inactive); in the assay with DMS-114, > 10 µM (inactive); in the assay on DMS-273, 60.4 µM (inactive); in the assay with HOP-18, > 100 µM (inactive); in the assay with KM-20L2, > 100 µM (inactive); in the assay with M19-MEL, > 100 µM (inactive). Further, the GI50 was 62.2 µM (inactive) in the assay with RXF 631 and 21.4 µM (inactive) with SNB-78.

Regarding `O=C(/C=C(\O)C(=O)O)/C=C(\O)c1ccccc1`, the GI50 in the assay with DLD-1 was > 4.65 µM (inactive); in the assay on DMS-273, > 4.65 µM (inactive); in the assay with HOP-18, 1 µM (active); in the assay with KM-20L2 it was > 4.65 µM (inactive); in the assay with M19-MEL, > 4.65 µM (inactive); in the assay on SNB-78 it was > 100 µM (inactive). Also, the GI50 in the assay on XF498 is > 100 µM (inactive).

For `CNc1ccc([N+](=O)[O-])c2c(NCCCN(C)C)ccnc12`, the GI50 with DMS-114 was > 100 µM (inactive); with DMS-273 it was > 100 µM (inactive); with KM-20L2, > 100 µM (inactive); with M19-MEL it was > 100 µM (inactive); with SNB-78 it was 7.8 µM (inactive); in the assay with XF498, > 100 µM (inactive).

On to `COC(=O)C(C(=O)C(=O)Nc1ccc([N+](=O)[O-])cc1)c1nc2cc(C)c(C)cc2nc1O` (configuration not stated), for which the GI50 with DLD-1, in the assay with DMS-114, in the assay with HOP-18, in the assay with KM-20L2, in the assay on M19-MEL and in the assay on SNB-78 was > 100 µM (inactive) each time. In the assay with XF498, the GI50 was > 100 µM (inactive).

With `CC[n+]1c(/C=C/c2ccc(N(CCCl)CCCl)cc2)ccc2cc(NC(=O)/C=C/c3ccccc3)ccc21`, the GI50 in the assay with DLD-1 is 0.628 µM (active); in the assay with DMS-114, 0.52 µM (active); with HOP-18, 2.62 µM (inactive); with KM-20L2, 0.483 µM (active); in the assay on M19-MEL it was 0.439 µM (active); in the assay on SNB-78 it was 1.51 µM (inactive). For the same molecule, in the assay on XF498, the GI50 is 0.205 µM (active).

Regarding `COC(=O)C1=C(c2ccc3c(c2)OCO3)OC(c2cc(OC)c(OC)c(OC)c2)C1` (configuration not stated), the GI50 was 3.58 µM (inactive) in the assay on DLD-1; 2.49 µM (inactive) in the assay on DMS-114; 1.89 µM (inactive) with DMS-273; 16.3 µM (inactive) in the assay on HOP-18; 1.57 µM (inactive) in the assay with KM-20L2; 4.86 µM (inactive) in the assay on M19-MEL. Moreover, the figures for the GI50 in the assay with SNB-78 and in the assay on XF498 were 10.4 µM (inactive) and 14.5 µM (inactive), respectively.

For `c1ccc(C2N3CCCCC3[C@@H]3c4[nH]c5ccccc5c4CCN23)nc1` (some centres not stated), the GI50 was > 100 µM (inactive) with DLD-1; 27.4 µM (inactive) in the assay with DMS-114; > 100 µM (inactive) in the assay with DMS-273; > 100 µM (inactive) with HOP-18; > 100 µM (inactive) in the assay on KM-20L2; > 100 µM (inactive) with M19-MEL. Also, the GI50 in the assay on RXF 631 was > 100 µM (inactive); in the assay with SNB-78 it was 49.7 µM (inactive).

For the molecule `O=[N+]([O-])c1cccc(C(O)/C(=N/Nc2ccccc2)C2Nc3ccc([N+](=O)[O-])cc3N=C2O)c1` (configuration not stated), the GI50 in the assay on DLD-1 is > 100 µM (inactive); with DMS-114, 24.9 µM (inactive); in the assay with DMS-273, 36.8 µM (inactive); in the assay on KM-20L2 it was 23.1 µM (inactive); with M19-MEL, 45.4 µM (inactive); with RXF 631, > 100 µM (inactive). Further, the GI50 in the assay on SNB-78 and with XF498 was > 100 µM (inactive) throughout.

Take `O=[N+]([O-])c1ccc(C2=Nc3ccccc3[S+]([O-])C(c3ccccc3)C2)cc1` (configuration not stated): the GI50 was 18.6 µM (inactive) with DLD-1; 19.1 µM (inactive) in the assay with DMS-114; 22.6 µM (inactive) in the assay with DMS-273; 24.9 µM (inactive) with HOP-18; 23.7 µM (inactive) in the assay with KM-20L2; 14.6 µM (inactive) with M19-MEL. The GI50 with RXF 631 was 17.1 µM (inactive); in the assay on XF498, 21.4 µM (inactive).

The values above are taken from ChEMBL document CHEMBL1201862, “PubChem BioAssay data set” (2004).
